# Test results taken from PubChem BioAssay (NCI).
#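 The compound was tested at five concentrations on cells cultured in 96-well plates, with a 48-hour exposure period. The concentration for 50% growth inhibition is given as GI50. TGI: total growth inhibition.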
# Experiments:
# Assay in all cases: NCI tumour cell line growth inhibition, 48 h
# 786-0 renal = test system: 786-0 renal
# A498 renal = test system: A498 renal
# A549 NSCLC = test system: A549 NSCLC
# ACHN renal = test system: ACHN renal
# BT-549 breast = test system: BT-549 breast
# CAKI-1 renal = test system: CAKI-1 renal
# CCRF-CEM leukemia = test system: CCRF-CEM leukemia
# COLO 205 colon = test system: COLO 205 colon
# DU-145 prostate = test system: DU-145 prostate
# EKVX NSCLC = test system: EKVX NSCLC
# HCC-2998 colon = test system: HCC-2998 colon
# HCT-116 colon = test system: HCT-116 colon
# HCT-15 colon = test system: HCT-15 colon
# HL-60(TB) leukemia = test system: HL-60(TB) leukemia
# HOP-62 NSCLC = test system: HOP-62 NSCLC
# HOP-92 NSCLC = test system: HOP-92 NSCLC
# HS 578T breast = test system: HS 578T breast
# HT29 colon = test system: HT29 colon
# IGROV1 ovarian = test system: IGROV1 ovarian
# K-562 leukemia = test system: K-562 leukemia
# KM12 colon = test system: KM12 colon
# LOX IMVI melanoma = test system: LOX IMVI melanoma
# M14 melanoma = test system: M14 melanoma
# MALME-3M melanoma = test system: MALME-3M melanoma
# MCF7 breast = test system: MCF7 breast
# MDA-MB-231 breast = test system: MDA-MB-231 breast
# MDA-MB-435 = test system: MDA-MB-435
# MOLT-4 leukemia = test system: MOLT-4 leukemia
# NCI-H226 lung = test system: NCI-H226 lung
# NCI-H23 lung = test system: NCI-H23 lung
# NCI-H460 lung = test system: NCI-H460 lung
# NCI-H522 lung = test system: NCI-H522 lung
# NCI/ADR-RES ovarian = test system: NCI/ADR-RES ovarian
# OVCAR-3 ovarian = test system: OVCAR-3 ovarian
# OVCAR-4 ovarian = test system: OVCAR-4 ovarian
# OVCAR-5 ovarian = test system: OVCAR-5 ovarian
# OVCAR-8 ovarian = test system: OVCAR-8 ovarian
# PC-3 prostate = test system: PC-3 prostate
# RPMI-8226 leukemia = test system: RPMI-8226 leukemia
# RXF 393 renal = test system: RXF 393 renal
# SF-268 CNS = test system: SF-268 CNS
# SF-295 CNS = test system: SF-295 CNS
# SF-539 CNS = test system: SF-539 CNS
# SK-MEL-2 melanoma = test system: SK-MEL-2 melanoma
# SK-MEL-28 melanoma = test system: SK-MEL-28 melanoma
# SK-MEL-5 melanoma = test system: SK-MEL-5 melanoma
# SK-OV-3 ovarian = test system: SK-OV-3 ovarian
# SN12C renal = test system: SN12C renal
# SNB-19 CNS = test system: SNB-19 CNS
# SNB-75 CNS = test system: SNB-75 CNS
# SR leukemia = test system: SR leukemia
# SW-620 colon = test system: SW-620 colon
# T-47D breast = test system: T-47D breast
# TK-10 renal = test system: TK-10 renal
# U251 CNS = test system: U251 CNS
# UACC-257 melanoma = test system: UACC-257 melanoma
# UACC-62 melanoma = test system: UACC-62 melanoma
# UO-31 renal = test system: UO-31 renal
compound,measurement,setting,value
NS(=O)(=O)c1nn2c(Br)c(-c3ccccc3)nc2s1,TGI,786-0 renal,9.34 µM
same,TGI,A498 renal,31 µM
same,TGI,A549 NSCLC,21.6 µM
same,TGI,ACHN renal,15.2 µM
same,TGI,BT-549 breast,7.69 µM
same,TGI,CAKI-1 renal,9.72 µM
same,TGI,CCRF-CEM leukemia,11 µM
same,TGI,COLO 205 colon,18.4 µM
same,TGI,DU-145 prostate,8.5 µM
same,TGI,EKVX NSCLC,31.9 µM
same,TGI,HCC-2998 colon,16.7 µM
same,TGI,HCT-116 colon,7.3 µM
same,TGI,HCT-15 colon,11.6 µM
same,TGI,HL-60(TB) leukemia,36.4 µM
same,TGI,HOP-62 NSCLC,29.5 µM
same,TGI,HOP-92 NSCLC,22.4 µM
same,TGI,HS 578T breast,30.7 µM
same,TGI,HT29 colon,8.4 µM
same,TGI,IGROV1 ovarian,23.3 µM
same,TGI,K-562 leukemia,21.2 µM
same,TGI,KM12 colon,21.3 µM
same,TGI,LOX IMVI melanoma,4.49 µM
same,TGI,M14 melanoma,13.8 µM
same,TGI,MALME-3M melanoma,13.7 µM
same,TGI,MCF7 breast,16 µM
same,TGI,MDA-MB-231 breast,15.9 µM
same,TGI,MDA-MB-435,16.3 µM
same,TGI,MOLT-4 leukemia,5.67 µM
same,TGI,NCI-H226 lung,4.6 µM
same,TGI,NCI-H23 lung,11.1 µM
same,TGI,NCI-H460 lung,19.3 µM
same,TGI,NCI-H522 lung,3.55 µM
same,TGI,NCI/ADR-RES ovarian,12.6 µM
same,TGI,OVCAR-3 ovarian,15.9 µM
same,TGI,OVCAR-4 ovarian,24.4 µM
same,TGI,OVCAR-5 ovarian,24.3 µM
same,TGI,OVCAR-8 ovarian,7.89 µM
same,TGI,PC-3 prostate,18.5 µM
same,TGI,RPMI-8226 leukemia,15.5 µM
same,TGI,RXF 393 renal,9.48 µM
same,TGI,SF-268 CNS,30.9 µM
same,TGI,SF-295 CNS,22.6 µM
same,TGI,SF-539 CNS,3.95 µM
same,TGI,SK-MEL-2 melanoma,16.9 µM
same,TGI,SK-MEL-28 melanoma,23.1 µM
same,TGI,SK-MEL-5 melanoma,6.48 µM
same,TGI,SK-OV-3 ovarian,28.4 µM
same,TGI,SN12C renal,7.94 µM
same,TGI,SNB-19 CNS,22.8 µM
same,TGI,SNB-75 CNS,19.5 µM
same,TGI,SR leukemia,> 33.8 µM
same,TGI,SW-620 colon,12.4 µM
same,TGI,T-47D breast,12.2 µM
same,TGI,TK-10 renal,17.7 µM
same,TGI,U251 CNS,15.6 µM
same,TGI,UACC-257 melanoma,15.5 µM
same,TGI,UACC-62 melanoma,15.4 µM
same,TGI,UO-31 renal,15.5 µM
CC(C)c1ccc(Nc2ccc3c(OCCCN4CCN(C)CC4)cccc3n2)cc1,GI50,786-0 renal,11.4 µM
same,TGI,786-0 renal,27 µM
same,GI50,A498 renal,16.4 µM
same,TGI,A498 renal,36.8 µM
same,GI50,A549 NSCLC,15.6 µM
same,TGI,A549 NSCLC,29.8 µM
same,GI50,ACHN renal,12.6 µM
same,TGI,ACHN renal,28 µM
same,GI50,BT-549 breast,12.3 µM
same,TGI,BT-549 breast,28.7 µM
same,GI50,CAKI-1 renal,12.6 µM
same,TGI,CAKI-1 renal,28.8 µM
same,GI50,CCRF-CEM leukemia,3.74 µM
same,TGI,CCRF-CEM leukemia,21.3 µM
same,GI50,COLO 205 colon,1.97 µM
same,TGI,COLO 205 colon,3.96 µM
same,GI50,DU-145 prostate,13.9 µM
same,TGI,DU-145 prostate,26.9 µM
same,GI50,EKVX NSCLC,14 µM
same,TGI,EKVX NSCLC,28.3 µM
same,GI50,HCC-2998 colon,1.77 µM
same,TGI,HCC-2998 colon,3.35 µM
same,GI50,HCT-116 colon,5.9 µM
same,TGI,HCT-116 colon,20.6 µM
same,GI50,HCT-15 colon,1.94 µM
same,TGI,HCT-15 colon,4.28 µM
same,GI50,HL-60(TB) leukemia,10.5 µM
same,TGI,HL-60(TB) leukemia,28.8 µM
same,GI50,HOP-62 NSCLC,12 µM
same,TGI,HOP-62 NSCLC,26.4 µM
same,GI50,HOP-92 NSCLC,10.6 µM
same,TGI,HOP-92 NSCLC,27.4 µM
same,GI50,HS 578T breast,16.9 µM
same,TGI,HS 578T breast,40.3 µM
same,GI50,HT29 colon,2.16 µM
same,TGI,HT29 colon,4.92 µM
same,GI50,IGROV1 ovarian,16.1 µM
same,TGI,IGROV1 ovarian,32.6 µM
same,GI50,K-562 leukemia,2.05 µM
same,TGI,K-562 leukemia,4.48 µM
same,GI50,KM12 colon,11.3 µM
same,TGI,KM12 colon,25.6 µM
same,GI50,LOX IMVI melanoma,1.86 µM
same,TGI,LOX IMVI melanoma,3.54 µM
same,GI50,M14 melanoma,2.85 µM
same,TGI,M14 melanoma,10.4 µM
same,GI50,MALME-3M melanoma,3.66 µM
same,TGI,MALME-3M melanoma,16.6 µM
same,GI50,MCF7 breast,3.21 µM
same,TGI,MCF7 breast,15 µM
same,GI50,MDA-MB-231 breast,2.11 µM
same,TGI,MDA-MB-231 breast,6.92 µM
same,GI50,MDA-MB-435,6.62 µM
same,TGI,MDA-MB-435,21.4 µM
same,GI50,MOLT-4 leukemia,2.92 µM
same,TGI,MOLT-4 leukemia,8.2 µM
same,GI50,NCI-H226 lung,18.8 µM
same,TGI,NCI-H226 lung,38.7 µM
same,GI50,NCI-H23 lung,11.9 µM
same,TGI,NCI-H23 lung,26.1 µM
same,GI50,NCI-H460 lung,5.44 µM
same,TGI,NCI-H460 lung,18 µM
same,GI50,NCI-H522 lung,19.9 µM
same,TGI,NCI-H522 lung,39.7 µM
same,GI50,NCI/ADR-RES ovarian,15.9 µM
same,TGI,NCI/ADR-RES ovarian,32.9 µM
same,GI50,OVCAR-3 ovarian,14.4 µM
same,TGI,OVCAR-3 ovarian,27.5 µM
same,GI50,OVCAR-4 ovarian,13.9 µM
same,TGI,OVCAR-4 ovarian,28.5 µM
same,GI50,OVCAR-5 ovarian,15.6 µM
same,TGI,OVCAR-5 ovarian,31.2 µM
same,GI50,OVCAR-8 ovarian,17.8 µM
same,TGI,OVCAR-8 ovarian,33.3 µM
same,GI50,PC-3 prostate,12.9 µM
same,TGI,PC-3 prostate,31.4 µM
same,GI50,RPMI-8226 leukemia,3.39 µM
same,TGI,RPMI-8226 leukemia,14.3 µM
same,GI50,RXF 393 renal,7.28 µM
same,TGI,RXF 393 renal,22.4 µM
same,GI50,SF-268 CNS,12.2 µM
same,TGI,SF-268 CNS,27.4 µM
same,GI50,SF-295 CNS,3.63 µM
same,TGI,SF-295 CNS,15.3 µM
same,GI50,SF-539 CNS,11.1 µM
same,TGI,SF-539 CNS,30 µM
same,GI50,SK-MEL-2 melanoma,19.6 µM
same,TGI,SK-MEL-2 melanoma,36.5 µM
same,GI50,SK-MEL-28 melanoma,1.89 µM
same,TGI,SK-MEL-28 melanoma,4.32 µM
same,GI50,SK-MEL-5 melanoma,15.3 µM
same,TGI,SK-MEL-5 melanoma,30.2 µM
same,GI50,SK-OV-3 ovarian,15.7 µM
same,TGI,SK-OV-3 ovarian,31.2 µM
same,GI50,SN12C renal,15.6 µM
same,TGI,SN12C renal,31.9 µM
same,GI50,SNB-19 CNS,12.5 µM
same,TGI,SNB-19 CNS,30 µM
same,GI50,SNB-75 CNS,12.8 µM
same,TGI,SNB-75 CNS,30 µM
same,GI50,SR leukemia,2.85 µM
same,TGI,SR leukemia,10.7 µM
same,GI50,SW-620 colon,8.9 µM
same,TGI,SW-620 colon,22.9 µM
same,GI50,T-47D breast,12.9 µM
same,TGI,T-47D breast,31.6 µM
same,GI50,TK-10 renal,16.5 µM
same,TGI,TK-10 renal,30.7 µM
same,GI50,U251 CNS,3.28 µM
same,TGI,U251 CNS,10.3 µM
same,GI50,UACC-257 melanoma,5.65 µM
same,TGI,UACC-257 melanoma,16.2 µM
same,GI50,UACC-62 melanoma,2.17 µM
same,TGI,UACC-62 melanoma,4.86 µM
same,GI50,UO-31 renal,12.9 µM
same,TGI,UO-31 renal,27.8 µM
